The test system of data set [1] is penetrating brain injury (PBI). Format: in vivo, mouse. The conditions noted are these: for Peptide signal in injured brain 3 hours after injection (retention): mouse, in vivo; for Homing to the injured brain (FAM fluorescence, immunohistochemical staining): i.v. 6 hours after PBI, 30 minutes circulation. How it is done: All animal experiments were conducted under an approved protocol of the Institutional Animal Care and Use Committee of Sanford Burnham Prebys Medical Discovery Institute. Eight to ten week old male BL6 mice were anesthetized with 4% isoflurane (Aerrane; Baxter, UK) in 70% N2O and 30% O2 and positioned in a stereotaxic frame. Using a head restraint, a 5-mm craniotomy was made using a portable drill and a trephine over the right parietotemporal cortex and the bone flap was removed. Penetrating brain injury model was used as described (Kielian et al., J. Immunol. 166:4634-4643 (2001); Kielian, J. Neuroinflammation 1:16 (2004)). Nine needle punctures using a 21 G needle were made 3 mm deep according to a 3×3 grid, spaced 1 mm in width and 1 mm in height. For traumatic brain injury, a Controlled Cortical Impact (CCI) model was used as described (Krajewska et al., PLoS One 6:e24341 (2011)). Mice were subjected to CCI using the benchmark stereotaxic impactor (Impact One™; myNeuroLab.com) with the actuator part mounted directly on the stereotaxic instrument. The impactor (3 mm in diameter) tip accelerated down to the 1.0 mm distance, reaching the preset velocity of 3 m/s, and the applied electromagnetic force remained there for the dwell time of 85 ms, and then retracted automatically. The contact sensor indicated the exact point of contact for reproducible results. In both models, facemask anesthesia (1-2% isoflurane in 70%/30% nitrous oxide/oxygen) was used during the entire procedure and afterwards, the scalp was closed with sutures, anesthesia discontinued, and mice were administered buprenorphine i.p. for pain control. For the first 2 hours after injury, mice were closely monitored in their cages.
CLARITY was performed on freshly-extracted brain tissues as described (Chung et al., Nature 497:332-337 (2013)). Briefly, mice were intravenously injected with FAM-labeled peptides 6 hours after brain injury. After 30-minute circulation, mice were intracardially perfused with PBS and hydrogel solution (Acrylamide (4%), bis (0.05%), VA-044 Initiator (0.25%), paraformaldehyde 4% in PBS). Following perfusion, the tissues were incubated in the hydrogel solution at 4° C. for 2-3 days. At UCSD Neuroscience Core and Light Microscopy Facility the tissues were then degased with nitrogen and incubated at 37° C. for 3-4 hours for polymerization. Samples were then passively cleared in 4% SDS solution for around 4 weeks until the tissue became transparent. Finally, the samples were washed in PBS-T for 2 days and incubated in gradient glycerol solutions: 30, 50 and 80%, about 1 day each and stored in 80% glycerol at room temperature until imaged on a confocal microscope (Leica SP5).
Animals were intravenously injected, six hours after injury, with 50 nmoles of peptide dissolved in PBS, and allowed to circulate for 30 minutes. Mice were perfused intracardially with saline and organs were isolated and imaged using the Illumatool Bright Light System LT-9900 (Lightools Research). Brains and organs were placed in 4% PFA at pH 7.4 overnight, washed with PBS and placed in graded sucrose solutions overnight before OCT embedding. 10 μm thick sections were cut and analyzed by immunofluorescence. For a complete histological analysis, sections were stained with the Movat pentachrome kit (American Mastertech Inc.) following the manufacturer's instructions.
Frozen sections were permeabilized using PBS-Triton (0.2%), blocking was carried out using 5% blocking buffer: 5% BSA, 1% goat serum, 1% donkey serum in PBS-T. Primary antibodies were incubated in diluted (1%) blocking buffer overnight at dilutions 1/100 or 1/200 at 4° C., washed with PBS-T and incubated with secondary antibodies diluted 1/200 or 1/500 in 1% diluted buffer for one hour at room temperature, subsequently washed with PBS-T, counterstained with DAPI 1 μg/mL in PBS for five minutes, washed with PBS, mounted using mounting media (Vector Biolabs), and imaged on a confocal microscope (Zeiss LSM-710). […]

Data set [2] concerns fluid percussion injury. The conditions noted are these: intracerebroventricular administration after fluid percussion injury in rats; cited from earlier work.
Data set [3] concerns the target T1, Tenascin-R (Mus musculus, UniProt Q8BYI9).
T1 construct: from tissue; host or cells: mouse brain, 6 h after penetrating brain injury (detergent lysate)
T1 sequence (Q8BYI9 32-1358): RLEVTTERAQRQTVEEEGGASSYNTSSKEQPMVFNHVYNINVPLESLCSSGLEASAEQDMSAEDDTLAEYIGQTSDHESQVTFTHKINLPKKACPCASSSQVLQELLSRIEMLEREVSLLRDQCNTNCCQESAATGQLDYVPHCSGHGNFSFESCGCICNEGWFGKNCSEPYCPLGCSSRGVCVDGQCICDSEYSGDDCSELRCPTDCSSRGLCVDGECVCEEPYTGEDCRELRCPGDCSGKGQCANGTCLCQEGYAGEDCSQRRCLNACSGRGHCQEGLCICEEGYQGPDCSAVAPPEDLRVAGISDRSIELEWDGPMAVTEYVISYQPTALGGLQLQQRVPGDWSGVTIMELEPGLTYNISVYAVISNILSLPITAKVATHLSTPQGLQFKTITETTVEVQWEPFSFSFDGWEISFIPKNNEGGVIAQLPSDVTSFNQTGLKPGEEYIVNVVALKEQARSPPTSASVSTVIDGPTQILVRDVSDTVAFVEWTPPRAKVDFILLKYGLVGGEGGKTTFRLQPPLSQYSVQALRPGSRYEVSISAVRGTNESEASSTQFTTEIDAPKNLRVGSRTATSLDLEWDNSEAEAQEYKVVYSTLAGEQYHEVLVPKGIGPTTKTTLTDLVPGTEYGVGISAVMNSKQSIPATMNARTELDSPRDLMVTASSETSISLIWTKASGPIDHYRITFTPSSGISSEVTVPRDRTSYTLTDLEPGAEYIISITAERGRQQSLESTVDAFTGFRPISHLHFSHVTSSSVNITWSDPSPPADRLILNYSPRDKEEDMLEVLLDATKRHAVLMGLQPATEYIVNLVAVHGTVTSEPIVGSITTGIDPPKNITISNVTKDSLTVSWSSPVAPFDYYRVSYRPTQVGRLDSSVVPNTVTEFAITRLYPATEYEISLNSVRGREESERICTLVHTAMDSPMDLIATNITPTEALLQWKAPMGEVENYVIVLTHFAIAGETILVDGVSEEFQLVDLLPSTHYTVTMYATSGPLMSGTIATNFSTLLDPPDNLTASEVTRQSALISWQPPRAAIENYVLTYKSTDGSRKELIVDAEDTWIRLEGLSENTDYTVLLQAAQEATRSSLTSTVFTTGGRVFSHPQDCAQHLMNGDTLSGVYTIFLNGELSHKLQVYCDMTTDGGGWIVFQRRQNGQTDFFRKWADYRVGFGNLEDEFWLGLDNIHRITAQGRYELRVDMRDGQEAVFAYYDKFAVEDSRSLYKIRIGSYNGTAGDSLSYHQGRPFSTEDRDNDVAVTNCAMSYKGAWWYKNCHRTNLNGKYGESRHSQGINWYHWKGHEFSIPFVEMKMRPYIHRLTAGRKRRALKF
Kind of data set: Peptide affinity chromatography and mass spectrometry of PBI brain extract. Format: binding. The settings on record: mouse PBI brain lysate 6 hrs after injury, eluted with 2 mM free CAQK; mean of three technical replicates. How it is done:
For identifying CAQK binding proteins, mouse brains with brain injury were collected 6 hrs after injury. Using liquid nitrogen, the brains were crushed and ground into powder using a mortar and pestle. Next, brain tissue was lysed in PBS containing 200 mM n-octyl-beta-D-glucopyranoside and protease inhibitor cocktail (Roche) as described (Teesalu et al., PNAS 16157-16162 (2009)). The cleared lysate was loaded on to CAQK or control peptide (CGGK) coated Sulfolink-agarose beads (Pierce, Waltham, Mass.) and incubated at 4° C. for 3-4 hrs. The column was washed with wash buffer (75 mM octyl-beta-D-glucopyranoside and protease inhibitor cocktail in PBS) followed by washing with 0.5 mM control peptide in wash buffer to remove nonspecifically bound proteins. The bound proteins were eluted with 2 mM free CAQK peptide. The eluted factions were pooled, their protein concentration determined by using bicinchoninic acid (BCA) protein assay (Thermo Fischer) and the samples were digested using the Filter-aided Sample Preparation (FASP) method (Wisniewski et al., Nat Methods 6:359-362 (2009)). Finally, the digested samples were desalted, dried, and subjected to LC-MS/MS analysis at the Proteomics Core facility of the Sanford Burnham Prebys Medical Discovery Institute. All mass spectra were analyzed with MaxQuant software version 1.5.0.25. […] Empty column denotes protein was not detected.

Consider five compounds from patent US10653797B2, “Compounds and compositions for targeting brain injuries and methods of use thereof” (SANFORD BURNHAM PREBYS MEDICAL DISCOVERY INSTITUTE, priority 2015, dated 2020).

Residues, ends and D or L forms follow the SMILES beside them. FAM = fluoresceinamine label

Consider `C[C@H](NC(=O)[C@@H](N)CS)C(=O)N[C@@H](CCC(N)=O)C(=O)N[C@@H](CCCCN)C(N)=O` [CAQK] (H-CAQK-NH2), for which the “Peptide signal in injured brain 3 hours after injection (retention)” value in data set [1] is given as “visible”.
In the case of `CN1CC[C@H](c2c(O)cc(O)c3c(=O)cc(-c4ccccc4Cl)oc23)[C@H](O)C1` [flavopiridol], the “Reduction of lesion volume” value in data set [2] is “approximately 70%”.
In the case of “CGGK ({FAM}-CGGK-NH2) [control peptide of the same length and overall charge as CAQK, immobilized on Sulfolink-agarose beads]”, in data set [3], the “Log2 LFQ intensity, Tenascin-R (TNR) in column eluate” value stood at 24.14.
In the case of “FAM-CAQK: chemically synthesized fluoresceinamine (FAM)-labeled CAQK peptide ({FAM}-CAQK-NH2)”, the “Homing to the injured brain (FAM fluorescence, immunohistochemical staining)” value in data set [1] is recorded as “selective homing to the injured brain”. Moreover, the “FAM signal in clarified whole brain (CLARITY)” value in data set [1] (i.v. 6 hours after injury, 30-minute circulation) is given as “restricted to the injured quadrant of the brain”. Also, the “Co-localization and cellular localization of i.v. injected peptide signal in injured brain” value in data set [1] (immunofluorescence of PBI brain sections) is given as “prominently accumulated at mature oligodendrocytes”.
For “FAM-CGGK: FAM-labeled control peptide (CGGK) of the same length and overall charge as CAQK ({FAM}-CGGK-NH2)”, in data set [1], the “Homing to the injured brain (FAM fluorescence, immunohistochemical staining)” value is reported as “minimal fluorescent signal” and the “Peptide signal in injured brain 3 hours after injection (retention)” value was “completely washed out”.
